From US11186606B2, “Compositions and methods of modulating the immune response by activating alpha protein kinase 1” (Shanghai Yao Yuan Biotechnology Co., Ltd., priority 2017, dated 2021)

Target: ALPK1 (Homo sapiens, UniProt Q96QP1)
Assay: IL8 secretion in HEK293 cells (IL8 ELISA) as indicator of ALPK1 activation
Conditions: for IL8 secretion in HEK293 cells: 4 hours

ALPK1, sequence (Q96QP1 whole entry): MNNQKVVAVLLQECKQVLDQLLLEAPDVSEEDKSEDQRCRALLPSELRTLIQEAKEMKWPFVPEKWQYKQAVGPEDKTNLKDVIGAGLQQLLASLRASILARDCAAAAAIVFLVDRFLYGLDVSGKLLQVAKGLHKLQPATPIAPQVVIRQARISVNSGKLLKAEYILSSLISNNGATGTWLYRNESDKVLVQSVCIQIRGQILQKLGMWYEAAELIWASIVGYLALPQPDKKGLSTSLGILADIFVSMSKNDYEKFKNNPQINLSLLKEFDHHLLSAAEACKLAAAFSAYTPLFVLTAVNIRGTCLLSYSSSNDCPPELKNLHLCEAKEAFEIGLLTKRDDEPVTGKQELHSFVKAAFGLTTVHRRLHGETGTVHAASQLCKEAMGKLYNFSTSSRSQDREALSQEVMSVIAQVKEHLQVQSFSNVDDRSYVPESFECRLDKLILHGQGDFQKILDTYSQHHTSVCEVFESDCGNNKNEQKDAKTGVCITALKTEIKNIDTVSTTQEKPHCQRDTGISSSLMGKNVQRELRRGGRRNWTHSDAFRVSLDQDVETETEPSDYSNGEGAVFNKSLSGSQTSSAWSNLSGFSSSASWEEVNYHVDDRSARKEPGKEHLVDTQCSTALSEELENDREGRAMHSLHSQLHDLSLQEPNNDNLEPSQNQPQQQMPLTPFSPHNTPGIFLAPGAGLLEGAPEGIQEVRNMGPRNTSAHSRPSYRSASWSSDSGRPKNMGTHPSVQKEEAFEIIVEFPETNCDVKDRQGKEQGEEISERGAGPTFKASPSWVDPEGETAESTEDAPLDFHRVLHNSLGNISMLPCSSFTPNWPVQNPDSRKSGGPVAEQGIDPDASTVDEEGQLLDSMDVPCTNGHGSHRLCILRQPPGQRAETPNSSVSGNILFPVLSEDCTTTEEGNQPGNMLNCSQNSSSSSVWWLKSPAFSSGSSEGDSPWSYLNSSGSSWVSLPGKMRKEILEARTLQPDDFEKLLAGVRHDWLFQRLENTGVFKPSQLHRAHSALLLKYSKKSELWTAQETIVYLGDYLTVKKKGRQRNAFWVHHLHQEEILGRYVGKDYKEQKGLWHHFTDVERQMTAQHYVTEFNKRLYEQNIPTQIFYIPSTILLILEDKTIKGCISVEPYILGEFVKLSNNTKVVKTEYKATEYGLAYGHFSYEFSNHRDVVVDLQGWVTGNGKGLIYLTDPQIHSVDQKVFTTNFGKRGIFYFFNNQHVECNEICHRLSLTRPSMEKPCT

SMILES | IL8 secretion in HEK293 cells (with 10% FBS) | IL8 secretion in HEK293 cells (without FBS) | resistance to serum degradation (compare without FBS and with 10% FBS (FIG. 27A and FIG. 27B))
CC(=O)OC[C@H](F)[C@H]1O[C@@H](OP(=O)(O)OP(=O)(O)OC[C@H]2O[C@@H](n3cnc4c(N)ncnc43)[C@H](O)[C@@H]2O)[C@@H](OC(C)=O)[C@@H](OC(C)=O)[C@@H]1OC(C)=O [Compound 3, (2S,3S,4S,5S,6S)-2-((S)-2-acetoxy-1-fluoroethyl)-6-(((((((2R,3S,4R,5R)-5-(6-amino-9H-purin-9-yl)-3,4-dihydroxytetrahydrofuran-2-yl)methoxy)(hydroxy)phosphoryl)oxy)(hydroxy)phosphoryl)oxy)tetrahydro-2H-pyran-3,4,5-triyl triacetate] | activate IL8 secretion | activate IL8 secretion | –
CC(=O)OC[C@H]1O[C@@H](OP(=O)(O)OP(=O)(O)OC[C@H]2O[C@@H](n3cnc4c(N)ncnc43)[C@H](O)[C@@H]2O)[C@@H](OC(C)=O)[C@@H](OC(C)=O)[C@@H]1OC(C)=O [Compound 5, (2R,3R,4S,5S,6S)-2-(acetoxymethyl)-6-(((((((2R,3S,4R,5R)-5-(6-amino-9H-purin-9-yl)-3,4-dihydroxytetrahydrofuran-2-yl)methoxy)(hydroxy)phosphoryl)oxy)(hydroxy)phosphoryl)oxy)tetrahydro-2H-pyran-3,4,5-triyl triacetate] | increased IL8 secretion | increased IL8 secretion | –
CO[C@@H]1[C@H](OC)[C@@H](COP(=O)(O)OP(=O)(O)O[C@@H]2O[C@H]([C@@H](COC(C)=O)OC(C)=O)[C@@H](OC(C)=O)[C@H](OC(C)=O)[C@@H]2OC(C)=O)O[C@H]1n1cnc2c(N)ncnc21 [Compound 13, (2S,3S,4S,5R,6R)-2-(((((((2R,3R,4R,5R)-5-(6-amino-9H-purin-9-yl)-3,4-dimethoxytetrahydrofuran-2-yl)methoxy)(hydroxy)phosphoryl)oxy)(hydroxy)phosphoryl)oxy)-6-((R)-1,2-diacetoxyethyl)tetrahydro-2H-pyran-3,4,5-triyl triacetate] | increased IL8 secretion | increased IL8 secretion | –
COC1C(OC)[C@@H](COP(=O)(O)OP(=O)(O)O[C@@H]2OC([C@H](O)CO)[C@@H](O)C(O)C2O)O[C@H]1n1cnc2c(N)ncnc21 (stereo partly drawn) [Compound 14, Adenosine-2′3′-dimethoxy-5′-(D-glycero-β-D-mannoheptopyranosyl) diphosphate] | increased IL8 secretion | increased IL8 secretion | –
CC(=O)OC[C@@H](OC(C)=O)[C@H]1O[C@@H](OP(=O)(O)OP(O)(=S)OC[C@H]2O[C@@H](n3cnc4c(N)ncnc43)[C@H](O)[C@@H]2O)[C@@H](OC(C)=O)[C@@H](OC(C)=O)[C@@H]1OC(C)=O (stereo partly drawn) [Compound 15, (2S,3S,4S,5R,6R)-2-(((((((2R,3S,4R,5R)-5-(6-amino-9H-purin-9-yl)-3,4-dihydroxytetrahydrofuran-2-yl)methoxy)(hydroxy)phosphorothioyl)oxy)(hydroxy)phosphoryl)oxy)-6-((R)-1,2-diacetoxyethyl)tetrahydro-2H-pyran-3,4,5-triyl triacetate] | activate IL8 secretion | activate IL8 secretion | unexpected resistance to serum degradation
Nc1ncnc2c1ncn2[C@@H]1O[C@H](COP(O)(=S)OP(=O)(O)O[C@@H]2OC([C@H](O)CO)[C@@H](O)C(O)C2O)C(O)C1O (some centres unmarked) [Compound 16] | increased IL8 secretion | increased IL8 secretion | –
CC(=O)OC[C@@H](OC(C)=O)[C@H]1O[C@@H](OP(=O)(O)OP(=O)(O)OC[C@H]2O[C@@H](n3cnc4c(N)ncnc43)[C@H](O)[C@H]2F)[C@@H](OC(C)=O)[C@@H](OC(C)=O)[C@@H]1OC(C)=O [Compound 17, (2S,3S,4S,5R,6R)-2-(((((((2R,3R,4S,5R)-5-(6-amino-9H-purin-9-yl)-3-fluoro-4-hydroxytetrahydrofuran-2-yl)methoxy)(hydroxy)phosphoryl)oxy)(hydroxy)phosphoryl)oxy)-6-((R)-1,2-diacetoxyethyl)tetrahydro-2H-pyran-3,4,5-triyl triacetate] | increased IL8 secretion | increased IL8 secretion | –
CC(=O)OC[C@@H](OC(C)=O)[C@H]1O[C@@H](OP(=O)(O)OP(=O)(O)OC[C@@]2(F)O[C@@H](n3cnc4c(N)ncnc43)[C@@H]3OC(C)(C)O[C@@H]32)[C@@H](OC(C)=O)[C@@H](OC(C)=O)[C@@H]1OC(C)=O [Compound 19, (2S,3S,4S,5R,6R)-2-(((((((3aS,4S,6R,6aR)-6-(6-amino-9H-purin-9-yl)-4-fluoro-2,2-dimethyltetrahydrofuro[3,4-d][1,3]dioxol-4-yl)methoxy)(hydroxy)phosphoryl)oxy)(hydroxy)phosphoryl)oxy)-6-((R)-1,2-diacetoxyethyl)tetrahydro-2H-pyran-3,4,5-triyl triacetate] | activate IL8 secretion | activate IL8 secretion | –
CC(=O)OC[C@@H](OC(C)=O)[C@H]1O[C@@H](OP(=O)(O)OP(=O)(O)OC[C@@]2(F)O[C@@H](n3cnc4c(N)ncnc43)[C@H](O)[C@@H]2O)[C@@H](OC(C)=O)[C@@H](OC(C)=O)[C@@H]1OC(C)=O [Compound 20, (2S,3S,4S,5R,6R)-2-(((((((2S,3S,4R,5R)-5-(6-amino-9H-purin-9-yl)-2-fluoro-3,4-dihydroxytetrahydrofuran-2-yl)methoxy)(hydroxy)phosphoryl)oxy)(hydroxy)phosphoryl)oxy)-6-((R)-1,2-diacetoxyethyl)tetrahydro-2H-pyran-3,4,5-triyl triacetate] | activate IL8 secretion | activate IL8 secretion | –
CC(=O)OC[C@H](OC(C)=O)[C@H]1O[C@@H](OP(=O)(O)OP(=O)(O)OC[C@H]2O[C@@H](n3cnc4c(N)ncnc43)[C@H](O)[C@@H]2O)[C@@H](OC(C)=O)[C@@H](OC(C)=O)[C@@H]1OC(C)=O [Compound 21, (2S,3S,4S,5R,6R)-2-(((((((2R,3S,4R,5R)-5-(6-amino-9H-purin-9-yl)-3,4-dihydroxytetrahydrofuran-2-yl)methoxy)(hydroxy)phosphoryl)oxy)(hydroxy)phosphoryl)oxy)-6-((S)-1,2-diacetoxyethyl)tetrahydro-2H-pyran-3,4,5-triyl triacetate] | increased IL8 secretion | increased IL8 secretion | –
Nc1ncnc2c1ncn2[C@@H]1O[C@H](COP(=O)(O)OP(=O)(O)O[C@@H]2OC([C@@H](O)CO)[C@@H](O)C(O)C2O)C(O)C1O (stereo partly drawn) [Compound 22, Adenosine-5′-(L-glycero-β-D-mannoheptopyranosyl) diphosphate] | increased IL8 secretion | increased IL8 secretion | –
